Blank lines part the entries; values can stand above or below the compound they belong to.
Key:
[1] = target: Baculoviral IAP repeat-containing protein 2/Cellular retinoic acid-binding protein 2 (Homo sapiens, UniProt P29373+Q13490); test: Protac activity at cIAP1 (unknown origin)/CRABP-II (unknown origin) assessed as protein degradation
[2] = target: E3 ubiquitin-protein ligase XIAP/Tyrosine-protein kinase ABL1/Breakpoint cluster region protein (Homo sapiens, UniProt P00519+P11274+P98170); test: Protac activity at XIAP/BCR-ABL in human K562 cells assessed as induction of BCR-ABL protein degradation measured after 6 hrs by Western blot analysis; format: cell-based
[3] = target: Baculoviral IAP repeat-containing protein 2/E3 ubiquitin-protein ligase XIAP/Breakpoint cluster region protein/Tyrosine-protein kinase ABL1 (Homo sapiens, UniProt P00519+P11274+P98170+Q13490); test: Protac activity at IAP/BCR-ABL in human K562 cells assessed as induction of BCR-ABL protein degradation measured after 6 hrs by Western blot analysis; format: cell-based
[4] = target: Estrogen receptor/E3 ubiquitin-protein ligase XIAP (Homo sapiens, UniProt P03372+P98170); test: Protac activity at XIAP (unknown origin)/ERalpha (unknown origin) assessed as protein degradation; format: protein assay
Sequence of Estrogen receptor/E3 ubiquitin-protein ligase XIAP (P03372 whole entry): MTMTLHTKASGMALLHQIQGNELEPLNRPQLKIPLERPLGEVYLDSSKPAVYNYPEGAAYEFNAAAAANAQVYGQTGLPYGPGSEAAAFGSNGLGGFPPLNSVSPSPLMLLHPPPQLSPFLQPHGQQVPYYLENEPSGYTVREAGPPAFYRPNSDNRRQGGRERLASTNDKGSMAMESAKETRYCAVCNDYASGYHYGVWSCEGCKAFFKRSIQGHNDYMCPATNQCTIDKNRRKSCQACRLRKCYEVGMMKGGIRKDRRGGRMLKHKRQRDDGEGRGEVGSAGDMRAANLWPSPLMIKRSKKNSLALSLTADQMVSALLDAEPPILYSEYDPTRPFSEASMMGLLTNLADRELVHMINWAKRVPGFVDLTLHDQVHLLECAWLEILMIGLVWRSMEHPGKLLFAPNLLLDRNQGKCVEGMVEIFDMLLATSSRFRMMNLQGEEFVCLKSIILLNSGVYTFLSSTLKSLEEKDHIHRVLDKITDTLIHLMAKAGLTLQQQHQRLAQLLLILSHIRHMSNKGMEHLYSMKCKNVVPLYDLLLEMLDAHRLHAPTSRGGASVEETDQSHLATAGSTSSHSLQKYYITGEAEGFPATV
Sequence of Estrogen receptor/E3 ubiquitin-protein ligase XIAP (P98170 whole entry): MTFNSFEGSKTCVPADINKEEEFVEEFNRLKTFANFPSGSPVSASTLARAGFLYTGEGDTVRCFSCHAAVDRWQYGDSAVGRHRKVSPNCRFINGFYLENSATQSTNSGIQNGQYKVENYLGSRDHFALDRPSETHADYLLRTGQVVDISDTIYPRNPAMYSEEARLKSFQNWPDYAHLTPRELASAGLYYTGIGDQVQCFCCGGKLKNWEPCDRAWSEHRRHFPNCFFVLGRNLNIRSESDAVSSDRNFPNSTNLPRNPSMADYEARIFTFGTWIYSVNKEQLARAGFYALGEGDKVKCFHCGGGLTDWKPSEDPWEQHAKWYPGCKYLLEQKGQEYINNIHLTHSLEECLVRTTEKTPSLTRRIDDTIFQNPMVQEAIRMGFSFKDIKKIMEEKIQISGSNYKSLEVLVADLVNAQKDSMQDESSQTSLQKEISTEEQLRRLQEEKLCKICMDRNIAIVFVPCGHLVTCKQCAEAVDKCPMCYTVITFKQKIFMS

Sequence of E3 ubiquitin-protein ligase XIAP/Tyrosine-protein kinase ABL1/Breakpoint cluster region protein (P00519 whole entry): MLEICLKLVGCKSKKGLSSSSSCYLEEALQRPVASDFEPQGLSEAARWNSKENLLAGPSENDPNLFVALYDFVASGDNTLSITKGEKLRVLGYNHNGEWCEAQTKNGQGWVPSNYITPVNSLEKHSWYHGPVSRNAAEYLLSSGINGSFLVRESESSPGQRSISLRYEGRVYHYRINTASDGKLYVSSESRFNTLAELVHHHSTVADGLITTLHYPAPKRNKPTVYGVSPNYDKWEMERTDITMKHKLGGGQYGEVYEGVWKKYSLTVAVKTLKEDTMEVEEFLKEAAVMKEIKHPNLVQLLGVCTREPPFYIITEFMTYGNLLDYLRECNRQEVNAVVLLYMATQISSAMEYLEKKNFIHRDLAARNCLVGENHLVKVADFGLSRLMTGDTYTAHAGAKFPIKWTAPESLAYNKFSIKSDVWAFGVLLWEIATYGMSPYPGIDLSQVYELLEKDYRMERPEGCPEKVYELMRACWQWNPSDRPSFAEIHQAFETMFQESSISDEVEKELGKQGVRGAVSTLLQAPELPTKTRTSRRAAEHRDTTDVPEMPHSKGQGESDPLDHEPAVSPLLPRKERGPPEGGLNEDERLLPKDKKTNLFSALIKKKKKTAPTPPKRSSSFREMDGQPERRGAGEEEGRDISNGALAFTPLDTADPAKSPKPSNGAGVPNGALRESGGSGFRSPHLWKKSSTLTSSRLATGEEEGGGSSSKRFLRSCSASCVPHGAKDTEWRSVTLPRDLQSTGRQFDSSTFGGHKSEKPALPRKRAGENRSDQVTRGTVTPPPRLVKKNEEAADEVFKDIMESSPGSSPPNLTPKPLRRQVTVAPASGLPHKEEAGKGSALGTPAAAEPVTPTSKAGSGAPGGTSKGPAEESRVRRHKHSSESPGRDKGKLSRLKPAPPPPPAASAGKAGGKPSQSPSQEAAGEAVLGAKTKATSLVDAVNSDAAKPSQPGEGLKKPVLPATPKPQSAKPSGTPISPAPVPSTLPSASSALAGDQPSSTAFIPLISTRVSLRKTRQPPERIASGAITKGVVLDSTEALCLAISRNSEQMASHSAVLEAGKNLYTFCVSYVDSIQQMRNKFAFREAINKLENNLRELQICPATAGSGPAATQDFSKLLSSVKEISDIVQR
Sequence of E3 ubiquitin-protein ligase XIAP/Tyrosine-protein kinase ABL1/Breakpoint cluster region protein (P98170 whole entry): as the sequence (P98170 whole entry) above
Sequence of E3 ubiquitin-protein ligase XIAP/Tyrosine-protein kinase ABL1/Breakpoint cluster region protein (P11274 whole entry): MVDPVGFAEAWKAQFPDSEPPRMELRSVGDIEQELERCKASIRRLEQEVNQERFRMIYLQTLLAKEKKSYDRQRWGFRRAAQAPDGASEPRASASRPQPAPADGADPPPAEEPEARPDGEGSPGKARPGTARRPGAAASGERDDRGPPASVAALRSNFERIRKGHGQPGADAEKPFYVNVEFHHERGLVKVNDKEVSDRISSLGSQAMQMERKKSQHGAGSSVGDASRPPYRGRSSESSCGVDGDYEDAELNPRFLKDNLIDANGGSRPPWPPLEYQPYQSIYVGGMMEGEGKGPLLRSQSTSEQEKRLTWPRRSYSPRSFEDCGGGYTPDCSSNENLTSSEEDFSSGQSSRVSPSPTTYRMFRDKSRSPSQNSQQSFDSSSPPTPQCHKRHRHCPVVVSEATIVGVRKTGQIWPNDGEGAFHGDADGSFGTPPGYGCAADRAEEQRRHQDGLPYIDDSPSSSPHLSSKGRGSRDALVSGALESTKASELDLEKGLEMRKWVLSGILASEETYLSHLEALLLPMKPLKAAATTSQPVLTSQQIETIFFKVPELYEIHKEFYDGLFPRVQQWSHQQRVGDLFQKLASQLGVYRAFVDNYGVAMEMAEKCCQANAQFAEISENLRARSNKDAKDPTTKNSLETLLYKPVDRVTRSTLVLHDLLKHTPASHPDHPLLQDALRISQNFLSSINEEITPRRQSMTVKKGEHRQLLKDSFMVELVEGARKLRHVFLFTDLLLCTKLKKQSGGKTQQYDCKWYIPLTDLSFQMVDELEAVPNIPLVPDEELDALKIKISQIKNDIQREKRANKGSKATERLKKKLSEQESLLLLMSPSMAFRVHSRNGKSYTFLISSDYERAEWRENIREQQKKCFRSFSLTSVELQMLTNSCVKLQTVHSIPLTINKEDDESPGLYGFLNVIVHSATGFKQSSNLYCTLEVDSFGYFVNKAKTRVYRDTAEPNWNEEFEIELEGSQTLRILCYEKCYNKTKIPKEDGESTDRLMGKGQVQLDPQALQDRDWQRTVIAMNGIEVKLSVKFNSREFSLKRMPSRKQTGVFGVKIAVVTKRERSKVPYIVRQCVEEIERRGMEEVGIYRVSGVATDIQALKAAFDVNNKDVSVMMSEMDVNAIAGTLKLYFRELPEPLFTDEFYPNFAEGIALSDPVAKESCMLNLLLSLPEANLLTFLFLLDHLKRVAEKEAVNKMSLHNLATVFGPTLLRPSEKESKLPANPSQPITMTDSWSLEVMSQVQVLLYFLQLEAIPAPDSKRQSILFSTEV
Sequence of Baculoviral IAP repeat-containing protein 2/Cellular retinoic acid-binding protein 2 (P29373 whole entry): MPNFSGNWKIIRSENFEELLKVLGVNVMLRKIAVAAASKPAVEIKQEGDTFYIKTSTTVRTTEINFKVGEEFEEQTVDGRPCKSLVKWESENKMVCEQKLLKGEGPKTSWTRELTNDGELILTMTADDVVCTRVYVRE
Sequence of Baculoviral IAP repeat-containing protein 2/Cellular retinoic acid-binding protein 2 (Q13490 whole entry): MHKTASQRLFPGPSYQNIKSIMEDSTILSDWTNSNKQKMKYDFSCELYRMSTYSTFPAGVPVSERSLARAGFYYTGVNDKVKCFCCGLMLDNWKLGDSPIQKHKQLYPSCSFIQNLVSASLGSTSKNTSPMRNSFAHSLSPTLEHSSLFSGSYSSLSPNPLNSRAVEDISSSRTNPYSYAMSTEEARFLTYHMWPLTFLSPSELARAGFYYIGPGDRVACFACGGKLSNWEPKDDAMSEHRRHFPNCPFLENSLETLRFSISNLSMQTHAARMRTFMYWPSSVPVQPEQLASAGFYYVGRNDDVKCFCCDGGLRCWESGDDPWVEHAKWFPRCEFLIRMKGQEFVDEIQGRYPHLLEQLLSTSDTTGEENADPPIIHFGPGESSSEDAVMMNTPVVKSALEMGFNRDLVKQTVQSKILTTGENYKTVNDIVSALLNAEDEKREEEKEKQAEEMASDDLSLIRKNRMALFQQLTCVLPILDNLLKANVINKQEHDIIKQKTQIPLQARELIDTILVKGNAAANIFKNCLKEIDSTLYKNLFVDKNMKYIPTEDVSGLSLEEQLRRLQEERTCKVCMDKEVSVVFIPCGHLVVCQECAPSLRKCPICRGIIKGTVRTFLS

EC50 [1]: ≥ 1 µM
Compound: CC1=C(/C=C/C(C)=C/C=C/C(C)=C/C(=O)O)C(C)(C)CC/C1=N\OCC(=O)NCCOCCOCCOC(=O)[C@H](CC(C)C)NC(=O)[C@@H](O)[C@H](N)Cc1ccccc1

EC50 [2]: < 0.1 µM
EC50 [3]: < 0.1 µM
Compound: CN[C@@H](C)C(=O)N[C@H](C(=O)N1CCC[C@H]1c1nc(C(=O)c2cccc(OCCOCCOCCOCC(=O)N3CCN(c4cc(Nc5ncc(C(=O)Nc6c(C)cccc6Cl)s5)nc(C)n4)CC3)c2)cs1)C1CCCCC1

EC50 [4]: < 0.1 µM
Compound: CC/C(=C(\c1ccc(O)cc1)c1ccc(OCCN(C)C(=O)COCCOCCOCc2cccc(O[C@H]3C[C@@H](C(=O)N[C@@H]4CCCc5ccccc54)N(C(=O)[C@@H](NC(=O)[C@H](C)NC)C4CCCCC4)C3)c2)cc1)c1ccccc1

EC50 [4]: < 0.1 µM
Compound: CC/C(=C(\c1ccc(O)cc1)c1ccc(OCCN(C)C(=O)COCCCCOc2cccc(C(=O)c3csc([C@@H]4CCCN4C(=O)[C@@H](NC(=O)[C@H](C)NC)C4CCCCC4)n3)c2)cc1)c1ccccc1
